Assay results from ChEMBL document CHEMBL4265943, “Design and synthesis of potent dual inhibitors of JAK2 and HDAC based on fusing the pharmacophores of XL019 and vorinostat” (Eur J Med Chem, 2018).

Legend:
[1] = target: Histone deacetylase 1 (Homo sapiens, UniProt Q13547); test: Inhibition of HDAC1 (unknown origin) using Arg-His-Lys-Lys(Ac) as substrate preincubated with enzyme followed by substrate addition for 2 hrs and measured for 1.5 hrs at 15 mins time interval by fluorescence assay
[2] = target: T1, Tyrosine-protein kinase JAK3 (Homo sapiens, UniProt P52333); test: Inhibition of human JAK3 using poly(Glu:Tyr)(4:1) as substrate preincubated for 20 mins followed by [gamma33P]ATP addition measured after 120 mins by ion exchange filter paper method
T1 sequence (P52333 whole entry): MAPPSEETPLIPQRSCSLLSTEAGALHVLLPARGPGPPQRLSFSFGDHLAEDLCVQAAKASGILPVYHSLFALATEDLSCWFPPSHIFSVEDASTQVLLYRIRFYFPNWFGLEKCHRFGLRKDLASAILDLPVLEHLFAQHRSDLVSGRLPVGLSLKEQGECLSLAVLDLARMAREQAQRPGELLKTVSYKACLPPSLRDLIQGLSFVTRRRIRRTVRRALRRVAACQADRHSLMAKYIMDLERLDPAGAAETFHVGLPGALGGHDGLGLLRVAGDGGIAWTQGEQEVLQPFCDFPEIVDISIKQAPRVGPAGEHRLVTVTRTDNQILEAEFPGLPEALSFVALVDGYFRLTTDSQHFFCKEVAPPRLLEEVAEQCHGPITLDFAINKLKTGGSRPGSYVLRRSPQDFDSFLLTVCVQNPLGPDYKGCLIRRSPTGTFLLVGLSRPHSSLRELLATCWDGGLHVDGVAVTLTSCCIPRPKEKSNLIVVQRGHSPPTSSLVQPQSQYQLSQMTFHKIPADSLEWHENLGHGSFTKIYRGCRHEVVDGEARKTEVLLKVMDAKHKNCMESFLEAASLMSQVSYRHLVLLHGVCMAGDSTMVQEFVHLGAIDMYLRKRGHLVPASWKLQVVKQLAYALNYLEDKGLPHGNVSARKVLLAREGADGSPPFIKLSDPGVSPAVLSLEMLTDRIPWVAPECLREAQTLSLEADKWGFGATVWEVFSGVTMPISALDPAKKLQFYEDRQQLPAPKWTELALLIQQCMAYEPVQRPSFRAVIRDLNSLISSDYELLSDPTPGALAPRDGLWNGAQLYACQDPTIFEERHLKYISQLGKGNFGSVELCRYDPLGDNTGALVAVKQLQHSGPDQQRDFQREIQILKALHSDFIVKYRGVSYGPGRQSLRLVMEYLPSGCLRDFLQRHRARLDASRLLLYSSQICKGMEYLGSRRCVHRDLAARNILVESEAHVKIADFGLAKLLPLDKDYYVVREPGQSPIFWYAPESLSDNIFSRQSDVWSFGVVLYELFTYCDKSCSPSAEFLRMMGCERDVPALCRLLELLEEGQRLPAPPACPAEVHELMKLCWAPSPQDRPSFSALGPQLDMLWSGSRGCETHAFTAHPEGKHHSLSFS

[3] = Selectivity index, ratio of CC50 for mouse TAMH cells to IC50 for human MDA-MB-231 cells; assay type: toxicity; details: TAMH cells (CC50) and MDA-MB-231 cells (IC50)
[4] = tested on: HCT-116; test: Induction of apoptosis in human HCT116 cells assessed as late apoptotic cells at 1.14 uM after 72 hrs by Annexin V-FITC/propidium iodide staining based flow cytometry (reference value: 1.45%); assay type: functional
[5] = tested on: MCF7; test: Induction of apoptosis in human MCF7 cells assessed as early apoptotic cells at 0.86 uM after 72 hrs by Annexin V-FITC/propidium iodide staining based flow cytometry (reference value: 1.19%); assay type: functional
[6] = tested on: PC-3; test: Induction of apoptosis in human PC3 cells assessed as late apoptotic cells at 0.71 uM after 72 hrs by Annexin V-FITC/propidium iodide staining based flow cytometry (reference value: 1.01%); assay type: functional
[7] = tested on: HCT-116; test: Induction of apoptosis in human HCT116 cells assessed as early apoptotic cells at 1.14 uM after 72 hrs by Annexin V-FITC/propidium iodide staining based flow cytometry (reference value: 1.31%); assay type: functional
[8] = target: T2, Protein deacetylase HDAC6 (Homo sapiens, UniProt Q9UBN7); test: Inhibition of HDAC6 (unknown origin) using Arg-His-Lys-Lys(Ac) as substrate preincubated with enzyme followed by substrate addition for 2 hrs and measured for 1.5 hrs at 15 mins time interval by fluorescence assay
T2 sequence (Q9UBN7 whole entry): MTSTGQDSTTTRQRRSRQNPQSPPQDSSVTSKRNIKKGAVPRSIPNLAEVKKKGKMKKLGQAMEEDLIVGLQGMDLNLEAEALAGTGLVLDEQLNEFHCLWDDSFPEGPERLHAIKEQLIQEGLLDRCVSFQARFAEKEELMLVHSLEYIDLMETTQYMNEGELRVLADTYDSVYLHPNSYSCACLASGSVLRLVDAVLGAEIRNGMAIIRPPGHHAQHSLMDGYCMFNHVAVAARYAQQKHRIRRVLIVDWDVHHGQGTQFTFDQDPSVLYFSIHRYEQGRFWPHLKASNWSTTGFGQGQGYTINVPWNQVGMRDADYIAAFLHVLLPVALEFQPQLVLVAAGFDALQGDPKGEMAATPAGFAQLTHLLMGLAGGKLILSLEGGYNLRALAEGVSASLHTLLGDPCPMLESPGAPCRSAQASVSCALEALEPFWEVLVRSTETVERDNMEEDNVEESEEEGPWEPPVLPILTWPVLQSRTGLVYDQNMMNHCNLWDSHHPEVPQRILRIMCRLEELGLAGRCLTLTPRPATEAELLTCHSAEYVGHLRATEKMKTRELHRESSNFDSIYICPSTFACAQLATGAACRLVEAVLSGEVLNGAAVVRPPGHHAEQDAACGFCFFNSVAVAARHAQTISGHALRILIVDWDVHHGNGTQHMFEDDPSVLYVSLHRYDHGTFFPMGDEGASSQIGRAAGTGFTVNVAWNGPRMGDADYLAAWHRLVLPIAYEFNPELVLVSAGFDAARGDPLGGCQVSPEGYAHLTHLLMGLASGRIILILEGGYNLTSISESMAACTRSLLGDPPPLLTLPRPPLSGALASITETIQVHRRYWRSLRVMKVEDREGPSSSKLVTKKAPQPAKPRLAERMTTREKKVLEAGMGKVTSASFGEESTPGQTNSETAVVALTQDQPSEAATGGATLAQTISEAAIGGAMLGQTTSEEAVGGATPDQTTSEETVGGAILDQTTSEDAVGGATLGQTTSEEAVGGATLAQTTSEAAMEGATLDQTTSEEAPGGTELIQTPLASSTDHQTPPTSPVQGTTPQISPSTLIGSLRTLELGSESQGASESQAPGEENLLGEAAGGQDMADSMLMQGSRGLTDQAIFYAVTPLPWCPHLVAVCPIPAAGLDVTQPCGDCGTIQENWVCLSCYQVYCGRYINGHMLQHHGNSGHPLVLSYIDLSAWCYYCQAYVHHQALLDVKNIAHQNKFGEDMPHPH

[9] = tested on: HCT-116; test: Antiproliferative activity against human HCT116 cells after 72 hrs by MTT assay; assay type: functional, cell-based; details: HCT-116, 72 h

Histone deacetylase 1, sequence (Q13547 whole entry): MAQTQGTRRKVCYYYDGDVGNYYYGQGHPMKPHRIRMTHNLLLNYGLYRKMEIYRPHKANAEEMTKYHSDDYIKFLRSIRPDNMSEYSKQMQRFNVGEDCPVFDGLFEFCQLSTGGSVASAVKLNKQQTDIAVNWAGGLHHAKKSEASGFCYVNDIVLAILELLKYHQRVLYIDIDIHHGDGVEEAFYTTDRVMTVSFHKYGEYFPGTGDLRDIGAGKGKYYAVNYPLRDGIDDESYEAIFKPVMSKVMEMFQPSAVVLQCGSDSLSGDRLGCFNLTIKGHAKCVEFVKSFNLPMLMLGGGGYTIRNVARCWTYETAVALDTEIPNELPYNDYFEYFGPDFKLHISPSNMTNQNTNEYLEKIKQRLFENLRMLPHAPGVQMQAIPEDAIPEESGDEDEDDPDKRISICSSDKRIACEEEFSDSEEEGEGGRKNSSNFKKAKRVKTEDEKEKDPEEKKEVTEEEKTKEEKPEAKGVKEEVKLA

IC50 [1]: 56 nM
IC50 [2]: 80.1 nM
IC50 [8]: 1.2 nM
IC50 [9]: 1050 nM
Structure (SMILES): O=C(CCCCCCC(=O)Nc1ccc(-c2ccnc(Nc3ccc(N4CCOCC4)cc3)n2)cc1)NO
selectivity ratio [3]: 6.45
Activity [4]: 12.12%
Activity [5]: 29.26%
Activity [6]: 13.06%
Activity [7]: 31.19%
